According to PubChem BioAssay (NCI):
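Growth conditions: 96-well plates. Treatment: test compound, 48 hours, 5 concentrations. Analysis: linear interpolation between bracketing concentrations; unreached endpoints set to highest concentration. The concentration for full growth arrest is given as TGI.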

How the values were obtained:
Experiment in all cases: inhibition of tumour cell growth, NCI panel, 48 h
786-0 renal = system: 786-0 renal
A549 NSCLC = system: A549 NSCLC
ACHN renal = system: ACHN renal
CAKI-1 renal = system: CAKI-1 renal
CCRF-CEM leukemia = system: CCRF-CEM leukemia
COLO 205 colon = system: COLO 205 colon
DLD-1 colon = system: DLD-1 colon
DMS 114 small cell lung = system: DMS 114 small cell lung
DMS 273 small cell lung = system: DMS 273 small cell lung
EKVX NSCLC = system: EKVX NSCLC
HCC-2998 colon = system: HCC-2998 colon
HCT-15 colon = system: HCT-15 colon
HL-60(TB) leukemia = system: HL-60(TB) leukemia
HOP-18 NSCLC = system: HOP-18 NSCLC
HOP-62 NSCLC = system: HOP-62 NSCLC
HOP-92 NSCLC = system: HOP-92 NSCLC
HT29 colon = system: HT29 colon
IGROV1 ovarian = system: IGROV1 ovarian
K-562 leukemia = system: K-562 leukemia
KM20L2 colon = system: KM20L2 colon
LOX IMVI melanoma = system: LOX IMVI melanoma
LXFL 529 NSCLC = system: LXFL 529 NSCLC
M14 melanoma = system: M14 melanoma
M19-MEL melanoma = system: M19-MEL melanoma
MALME-3M melanoma = system: MALME-3M melanoma
MOLT-4 leukemia = system: MOLT-4 leukemia
NCI-H23 lung = system: NCI-H23 lung
NCI-H460 lung = system: NCI-H460 lung
OVCAR-3 ovarian = system: OVCAR-3 ovarian
OVCAR-4 ovarian = system: OVCAR-4 ovarian
OVCAR-8 ovarian = system: OVCAR-8 ovarian
RPMI-8226 leukemia = system: RPMI-8226 leukemia
RXF 393 renal = system: RXF 393 renal
SF-268 CNS = system: SF-268 CNS
SF-295 CNS = system: SF-295 CNS
SK-MEL-28 melanoma = system: SK-MEL-28 melanoma
SK-OV-3 ovarian = system: SK-OV-3 ovarian
SN12C renal = system: SN12C renal
SNB-19 CNS = system: SNB-19 CNS
SNB-75 CNS = system: SNB-75 CNS
SNB-78 CNS = system: SNB-78 CNS
SW-620 colon = system: SW-620 colon
TK-10 renal = system: TK-10 renal
U251 CNS = system: U251 CNS
UACC-62 melanoma = system: UACC-62 melanoma
UO-31 renal = system: UO-31 renal
XF 498 CNS = system: XF 498 CNS
A498 renal = system: A498 renal
HCT-116 colon = system: HCT-116 colon
KM12 colon = system: KM12 colon
NCI-H226 lung = system: NCI-H226 lung
NCI-H522 lung = system: NCI-H522 lung
OVCAR-5 ovarian = system: OVCAR-5 ovarian
SF-539 CNS = system: SF-539 CNS
SK-MEL-5 melanoma = system: SK-MEL-5 melanoma
SR leukemia = system: SR leukemia
UACC-257 melanoma = system: UACC-257 melanoma
SK-MEL-2 melanoma = system: SK-MEL-2 melanoma
RXF-631 renal = system: RXF-631 renal

CCOC(=O)C1(Cc2ccc3ccccc3c2)CCCCC(=O)N1 (stereo not given)
TGI (786-0 renal): > 100 µM | TGI (A549 NSCLC): > 100 µM | TGI (ACHN renal): > 100 µM | TGI (CAKI-1 renal): > 100 µM | TGI (CCRF-CEM leukemia): > 100 µM | TGI (COLO 205 colon): > 100 µM | TGI (DLD-1 colon): > 100 µM | TGI (DMS 114 small cell lung): 72.9 µM | TGI (DMS 273 small cell lung): 36.9 µM | TGI (EKVX NSCLC): > 100 µM | TGI (HCC-2998 colon): 66.6 µM | TGI (HCT-15 colon): > 100 µM | TGI (HL-60(TB) leukemia): 30.3 µM | TGI (HOP-18 NSCLC): > 100 µM | TGI (HOP-62 NSCLC): > 100 µM | TGI (HOP-92 NSCLC): 59.2 µM | TGI (HT29 colon): > 100 µM | TGI (IGROV1 ovarian): > 100 µM | TGI (K-562 leukemia): > 100 µM | TGI (KM20L2 colon): > 100 µM | TGI (LOX IMVI melanoma): > 100 µM | TGI (LXFL 529 NSCLC): > 100 µM | TGI (M14 melanoma): > 100 µM | TGI (M19-MEL melanoma): > 100 µM | TGI (MALME-3M melanoma): 86.5 µM | TGI (MOLT-4 leukemia): > 100 µM | TGI (NCI-H23 lung): > 100 µM | TGI (NCI-H460 lung): > 100 µM | TGI (OVCAR-3 ovarian): 92.5 µM | TGI (OVCAR-4 ovarian): > 100 µM | TGI (OVCAR-8 ovarian): > 100 µM | TGI (RPMI-8226 leukemia): 58.2 µM | TGI (RXF 393 renal): > 100 µM | TGI (SF-268 CNS): > 100 µM | TGI (SF-295 CNS): 35.2 µM | TGI (SK-MEL-28 melanoma): > 100 µM | TGI (SK-OV-3 ovarian): > 100 µM | TGI (SN12C renal): > 100 µM | TGI (SNB-19 CNS): > 100 µM | TGI (SNB-75 CNS): 9.22 µM | TGI (SNB-78 CNS): > 100 µM | TGI (SW-620 colon): > 100 µM | TGI (TK-10 renal): > 100 µM | TGI (U251 CNS): > 100 µM | TGI (UACC-62 melanoma): > 100 µM | TGI (UO-31 renal): 82.2 µM | TGI (XF 498 CNS): > 100 µM

COc1ccc(/C=N/n2c(C)nc3c(sc(=S)n3-c3ccccc3)c2=O)cc1
TGI (A498 renal): > 100 µM | TGI (A549 NSCLC): > 100 µM | TGI (ACHN renal): > 100 µM | TGI (CCRF-CEM leukemia): 54.2 µM | TGI (COLO 205 colon): > 100 µM | TGI (DLD-1 colon): > 100 µM | TGI (HCC-2998 colon): > 100 µM | TGI (HCT-116 colon): > 100 µM | TGI (HL-60(TB) leukemia): 61.2 µM | TGI (HOP-18 NSCLC): > 100 µM | TGI (HOP-62 NSCLC): > 100 µM | TGI (HOP-92 NSCLC): > 100 µM | TGI (HT29 colon): > 100 µM | TGI (IGROV1 ovarian): > 100 µM | TGI (K-562 leukemia): 81.2 µM | TGI (KM12 colon): > 100 µM | TGI (LXFL 529 NSCLC): > 100 µM | TGI (M19-MEL melanoma): > 100 µM | TGI (MOLT-4 leukemia): > 100 µM | TGI (NCI-H226 lung): > 100 µM | TGI (NCI-H23 lung): > 100 µM | TGI (NCI-H460 lung): > 100 µM | TGI (NCI-H522 lung): 46.4 µM | TGI (OVCAR-3 ovarian): > 100 µM | TGI (OVCAR-5 ovarian): > 100 µM | TGI (OVCAR-8 ovarian): > 100 µM | TGI (RPMI-8226 leukemia): > 100 µM | TGI (SF-268 CNS): > 100 µM | TGI (SF-295 CNS): > 100 µM | TGI (SF-539 CNS): > 100 µM | TGI (SK-MEL-28 melanoma): > 100 µM | TGI (SK-MEL-5 melanoma): > 100 µM | TGI (SK-OV-3 ovarian): > 100 µM | TGI (SNB-19 CNS): > 100 µM | TGI (SNB-75 CNS): 41.4 µM | TGI (SR leukemia): > 100 µM | TGI (SW-620 colon): > 100 µM | TGI (TK-10 renal): > 100 µM | TGI (U251 CNS): > 100 µM | TGI (UACC-257 melanoma): > 100 µM | TGI (UACC-62 melanoma): > 100 µM | TGI (UO-31 renal): > 100 µM

N#C/C(=C1\SC(N=Nc2ccc(Cl)cc2)C(=O)N1c1ccccc1)c1nc2ccccc2[nH]1 (stereo not given)
TGI (786-0 renal): 26.8 µM | TGI (A498 renal): 58.4 µM | TGI (A549 NSCLC): 87.3 µM | TGI (ACHN renal): > 100 µM | TGI (CAKI-1 renal): > 100 µM | TGI (CCRF-CEM leukemia): 47.4 µM | TGI (COLO 205 colon): > 100 µM | TGI (DLD-1 colon): > 100 µM | TGI (DMS 273 small cell lung): > 100 µM | TGI (EKVX NSCLC): > 100 µM | TGI (HCT-116 colon): > 100 µM | TGI (HCT-15 colon): > 100 µM | TGI (HL-60(TB) leukemia): > 100 µM | TGI (HOP-62 NSCLC): 35.4 µM | TGI (HOP-92 NSCLC): 51.9 µM | TGI (HT29 colon): > 100 µM | TGI (K-562 leukemia): 41 µM | TGI (KM20L2 colon): > 100 µM | TGI (LOX IMVI melanoma): 57.4 µM | TGI (LXFL 529 NSCLC): > 100 µM | TGI (M14 melanoma): > 100 µM | TGI (M19-MEL melanoma): 95.4 µM | TGI (MALME-3M melanoma): 99.1 µM | TGI (NCI-H226 lung): 77.2 µM | TGI (NCI-H23 lung): 65.8 µM | TGI (NCI-H460 lung): > 100 µM | TGI (NCI-H522 lung): 79.9 µM | TGI (OVCAR-3 ovarian): 69 µM | TGI (OVCAR-4 ovarian): 55.8 µM | TGI (OVCAR-5 ovarian): > 100 µM | TGI (OVCAR-8 ovarian): > 100 µM | TGI (RXF 393 renal): 67.9 µM | TGI (SF-268 CNS): > 100 µM | TGI (SF-295 CNS): 58.7 µM | TGI (SF-539 CNS): > 100 µM | TGI (SK-MEL-2 melanoma): 62 µM | TGI (SK-MEL-28 melanoma): > 100 µM | TGI (SK-MEL-5 melanoma): > 100 µM | TGI (SK-OV-3 ovarian): 35.6 µM | TGI (SN12C renal): > 100 µM | TGI (SNB-19 CNS): 89.6 µM | TGI (SNB-75 CNS): 65.5 µM | TGI (SNB-78 CNS): > 100 µM | TGI (SW-620 colon): > 100 µM | TGI (TK-10 renal): 61.6 µM | TGI (U251 CNS): 44.8 µM | TGI (UACC-257 melanoma): 92.6 µM | TGI (UACC-62 melanoma): > 100 µM | TGI (UO-31 renal): 40 µM | TGI (XF 498 CNS): 84.8 µM

Cc1c(C(=O)/C=C/c2ccccc2[N+](=O)[O-])[n+](=O)c2ccccc2n1[O-]
TGI (786-0 renal): 17.8 µM | TGI (A498 renal): 26 µM | TGI (A549 NSCLC): 34.3 µM | TGI (ACHN renal): 24.2 µM | TGI (CAKI-1 renal): 15.7 µM | TGI (COLO 205 colon): 13.7 µM | TGI (DLD-1 colon): 17.9 µM | TGI (DMS 114 small cell lung): 18 µM | TGI (DMS 273 small cell lung): 16.8 µM | TGI (EKVX NSCLC): 27.6 µM | TGI (HCT-116 colon): 16.5 µM | TGI (HCT-15 colon): 12.6 µM | TGI (HL-60(TB) leukemia): 5.71 µM | TGI (HOP-18 NSCLC): 28.7 µM | TGI (HOP-62 NSCLC): 32.2 µM | TGI (HOP-92 NSCLC): 27.4 µM | TGI (HT29 colon): 23.2 µM | TGI (IGROV1 ovarian): 29.9 µM | TGI (K-562 leukemia): 30.6 µM | TGI (KM12 colon): 22 µM | TGI (KM20L2 colon): 18 µM | TGI (LXFL 529 NSCLC): 16.6 µM | TGI (M14 melanoma): 23.1 µM | TGI (M19-MEL melanoma): 20.5 µM | TGI (MALME-3M melanoma): 27.8 µM | TGI (MOLT-4 leukemia): 29.3 µM | TGI (NCI-H226 lung): 24 µM | TGI (NCI-H23 lung): 17.8 µM | TGI (NCI-H460 lung): 22.5 µM | TGI (NCI-H522 lung): 19.1 µM | TGI (OVCAR-3 ovarian): 13.3 µM | TGI (OVCAR-4 ovarian): 22.8 µM | TGI (OVCAR-5 ovarian): 26.9 µM | TGI (OVCAR-8 ovarian): 14.3 µM | TGI (RPMI-8226 leukemia): 14.7 µM | TGI (RXF-631 renal): 23.9 µM | TGI (SF-295 CNS): 20.4 µM | TGI (SF-539 CNS): 10.2 µM | TGI (SK-MEL-2 melanoma): 24.1 µM | TGI (SK-MEL-28 melanoma): 25.5 µM | TGI (SK-MEL-5 melanoma): 24.4 µM | TGI (SK-OV-3 ovarian): 31.8 µM | TGI (SN12C renal): 18.6 µM | TGI (SNB-19 CNS): 33.4 µM | TGI (SNB-75 CNS): 30.3 µM | TGI (SNB-78 CNS): 70.7 µM | TGI (SR leukemia): 31.6 µM | TGI (SW-620 colon): 17.5 µM | TGI (U251 CNS): 28.5 µM | TGI (UACC-257 melanoma): 20.4 µM | TGI (UO-31 renal): 33 µM
